The record followed here is US20240317744A1, “Bicyclic Ureas As Kinase Inhibitors” (Incyte Corporation, priority 2023, published 2024).

Assay [1] has as its target T1, pseudo-kinase domain (JH2, amino-acids 536-812) of human Wild Type JAK2 (Homo sapiens, UniProt O60674, F794H/W659A/W777A).
T1 construct: pseudo-kinase domain (JH2, amino-acids 536-812 with 3 surface mutations W659A, W777A, F794H); His (C); purchased BPS Bioscience 79463; host or cells: baculovirus expression system
The experiment in a line: JAK2 LanthaScreen JH2-WT Binding Assay. The note with it: JAK2 JH2-WT 0.145 nM, 50 nM tracer, 1 hour at 25° C.; read-out: JH2 BIND WT. The gist of the method: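 TR-FRET tracer displacement: 0.145 nM biotinylated JH2 protein, 50 nM fluorescent tracer, 0.25 nM streptavidin-Tb, compound dilution series; 50 mM Tris pH 7.5, 10 mM MgCl2, 5 mM DTT; 1 h, 25° C. Non-specific binding with 2 mM ATP. IC50 by 4-parameter fit.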
Background: TR-FRET usually uses a lanthanide donor and a delayed reading to cut background.

The target of assay [2] is T2, catalytic domain (JH1, amino acids 826-1132) of human JAK2 (Homo sapiens, UniProt O60674).
T2 construct: catalytic domain (JH1, amino acids 826-1132) of human JAK2; FLAG (N); biotin (biotinylated); purchased Carna Biosciences 08-445-20N; host or cells: baculovirus expression system
T2 sequence (O60674 826-1132): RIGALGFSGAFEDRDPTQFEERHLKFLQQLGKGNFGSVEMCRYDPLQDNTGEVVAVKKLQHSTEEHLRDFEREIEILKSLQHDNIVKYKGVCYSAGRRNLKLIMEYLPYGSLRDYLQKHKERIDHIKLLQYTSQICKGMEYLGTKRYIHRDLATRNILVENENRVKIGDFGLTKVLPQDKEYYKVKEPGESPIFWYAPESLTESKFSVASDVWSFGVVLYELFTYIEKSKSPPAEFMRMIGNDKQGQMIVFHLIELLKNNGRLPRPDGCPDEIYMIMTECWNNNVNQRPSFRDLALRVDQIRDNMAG
The experiment in a line: JAK2 LanthaScreen JH1 Binding Assay. The note with it: JAK2 JH1 1.5 nM, 50 nM tracer, 2 hours at 25° C.; read-out: JH1 BIND. The gist of the method: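 FLAG-tagged, biotinylated JAK2 JH1 (aa 826-1132, baculovirus-expressed; 1.5 nM) incubated 2 h at 25° C with compounds, 50 nM fluorescent tracer and 0.5 nM Streptavidin-Tb in Tris pH 7.5 buffer with MgCl2, Brij-35, BSA, EGTA, glycerol, DTT. Nonspecific binding defined with 2 mM ATP; TR-FRET IC50 from four-parameter fit.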

Assay [3] deals with catalytic domain (JH1, amino acids 808-1132) of human JAK2 (Homo sapiens, UniProt O60674). The experiment in a line: JAK2 HTRF Enzyme Activity Assay. Type of assay: biochemical. The note with it: ATP 30 µM, 60 minutes at 25° C.; read-out: V617F ENZ 30 UM.
catalytic domain (JH1, amino acids 808-1132) of human JAK2, sequence (O60674 808-1132 limits assumed): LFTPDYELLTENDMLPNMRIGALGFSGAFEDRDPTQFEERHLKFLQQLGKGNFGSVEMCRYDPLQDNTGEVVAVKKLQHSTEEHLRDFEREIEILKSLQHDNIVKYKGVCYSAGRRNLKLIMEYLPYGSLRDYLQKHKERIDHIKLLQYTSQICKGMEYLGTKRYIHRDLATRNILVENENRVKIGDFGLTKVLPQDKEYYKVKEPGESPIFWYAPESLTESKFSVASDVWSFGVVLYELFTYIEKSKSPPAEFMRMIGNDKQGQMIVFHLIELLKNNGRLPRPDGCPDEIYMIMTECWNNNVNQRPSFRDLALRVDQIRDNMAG
Assay [4] concerns the target T3, pseudo-kinase domain (JH2, amino-acids 536-812) of human V617F mutant JAK2 (Homo sapiens, UniProt O60674, F794H/V617F/W659A/W777A).
T3 construct: pseudo-kinase domain (JH2, amino-acids 536-812 with 3 surface mutations W659A, W777A, F794H); His (C); purchased BPS Bioscience 79498; host or cells: baculovirus expression system
The experiment in a line: JAK2 LanthaScreen JH2-V617F Binding Assay. The note with it: JAK2 JH2-V617F 0.26 nM, 50 nM tracer, 1 hour at 25° C.; read-out: JH2 BIND V617F. The gist of the method:
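Biotinylated His-Avi-tagged construct, baculovirus-expressed, at 0.26 nM; compounds competed against 50 nM fluorescent JH2 tracer with 0.25 nM streptavidin-Tb in Tris pH 7.5 buffer. Non-specific binding defined with 2 mM ATP. Read after 1 h at 25° C by TR-FRET; IC50 from four-parameter fit.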

Each structure is given as a SMILES string.

T1 sequence (O60674 536-812 W659A/W777A/F794H): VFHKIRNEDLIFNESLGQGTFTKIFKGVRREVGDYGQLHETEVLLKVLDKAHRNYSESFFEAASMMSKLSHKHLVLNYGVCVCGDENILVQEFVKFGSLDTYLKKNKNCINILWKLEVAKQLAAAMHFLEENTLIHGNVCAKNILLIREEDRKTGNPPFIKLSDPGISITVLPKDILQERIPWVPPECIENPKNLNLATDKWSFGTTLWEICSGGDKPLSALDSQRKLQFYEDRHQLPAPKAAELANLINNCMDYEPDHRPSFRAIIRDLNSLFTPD
T3 sequence (O60674 536-812 V617F/W659A/W777A/F794H): as the sequence (O60674 536-812 W659A/W777A/F794H) above, with V82F counted along it

As to `[2H]C([2H])([2H])n1c(=O)n([C@@H]2CC[C@@H](NC(=O)OC)C2)c2cc(Nc3cc(C(=O)N4CCOCC4)cc(-c4ccc(C(F)F)s4)n3)ncc21` [Example 104, Methyl ((1R,3R)-3-(6-((6-(5-(difluoromethyl)thiophen-2-yl)-4-(morpholine-4-carbonyl)pyridin-2-yl)amino)-3-(methyl-d3)-2-oxo-2,3-dihydro-1H-imidazo[4,5-c]pyridin-1-yl)cyclopentyl)carbamate], the IC50 in assay [1] is not above 10 nM; in assay [2] it was more than 1000 nM; in assay [3], 500 to 1000 nM; in assay [4] it was not above 10 nM.
Regarding `[2H]C([2H])([2H])n1c(=O)n([C@@H]2CC[C@@H](NC(=O)OC)C2)c2cc(Nc3cc(C4CCN(C(C)=O)CC4)cc(-c4ncc(C(F)(F)F)s4)n3)ncc21` [Example 105, Methyl ((1R,3R)-3-(6-((4-(1-acetylpiperidin-4-yl)-6-(5-(trifluoromethyl)thiazol-2-yl)pyridin-2-yl)amino)-3-(methyl-d3)-2-oxo-2,3-dihydro-1H-imidazo[4,5-c]pyridin-1-yl)cyclopentyl)carbamate], the IC50 in assay [1] was not above 10 nM; in assay [2], more than 1000 nM; in assay [3], more than 1000 nM; in assay [4], not above 10 nM.
`[2H]C([2H])([2H])n1c(=O)n([C@H]2C[C@H](C(C)(C)O)C2)c2cc(Nc3cc(-c4cnccc4C(F)(F)F)c4nc(C)c(-c5cnn(C(F)F)c5)n4n3)ncc21` [Example 106, 6-((3-(1-(Difluoromethyl)-1H-pyrazol-4-yl)-2-methyl-8-(4-(trifluoromethyl)pyridin-3-yl)imidazo[1,2-b]pyridazin-6-yl)amino)-1-((1r,3r)-3-(2-hydroxypropan-2-yl)cyclobutyl)-3-(methyl-d3)-1,3-dihydro-2H-imidazo[4,5-c]pyridin-2-one]: the IC50 in assay [1] is not above 10 nM; in assay [2], more than 1000 nM; in assay [3], more than 1000 nM; in assay [4], not above 10 nM.
Regarding `[2H]C([2H])([2H])n1c(=O)n([C@@H]2CC[C@@H](NC(=O)OC)C2)c2cc(Nc3cc(-c4cnn(C)c4)cc(-c4ncc(C(C)(C)O)s4)n3)ncc21` [Example 107, Methyl ((1R,3R)-3-(6-((6-(5-(2-hydroxypropan-2-yl)thiazol-2-yl)-4-(1-methyl-1H-pyrazol-4-yl)pyridin-2-yl)amino)-3-(methyl-d3)-2-oxo-2,3-dihydro-1H-imidazo[4,5-c]pyridin-1-yl)cyclopentyl)carbamate], the IC50 is not above 10 nM in assay [1], more than 1000 nM in assay [2], more than 1000 nM in assay [3] and not above 10 nM in assay [4].
On to `[2H]C([2H])([2H])n1c(=O)n([C@@H]2CC[C@@H](NC(=O)OC)C2)c2cc(Nc3cccc(-n4cc(C(F)(F)F)cn4)n3)ncc21` [Example 108, Methyl ((1R,3R)-3-(3-(methyl-d3)-2-oxo-6-((6-(4-(trifluoromethyl)-1H-pyrazol-1-yl)pyridin-2-yl)amino)-2,3-dihydro-1H-imidazo[4,5-c]pyridin-1-yl)cyclopentyl)carbamate], for which the IC50 was not above 10 nM in assay [1], more than 1000 nM in assay [2], more than 1000 nM in assay [3] and not above 10 nM in assay [4].
As to `[2H]C([2H])([2H])n1c(=O)n([C@@H]2CC[C@@H](NC(=O)OC)C2)c2cc(Nc3ccc4c(n3)n(-c3cnn(C(F)F)c3)c(=O)n4CC3(C#N)CC3)ncc21` [Example 114, Methyl ((1R,3R)-3-(6-((1-((1-cyanocyclopropyl)methyl)-3-(1-(difluoromethyl)-1H-pyrazol-4-yl)-2-oxo-2,3-dihydro-1H-imidazo[4,5-b]pyridin-5-yl)amino)-3-(methyl-d3)-2-oxo-2,3-dihydro-1H-imidazo[4,5-c]pyridin-1-yl)cyclopentyl)carbamate], the IC50 in assay [1] is not above 10 nM; in assay [2], more than 1000 nM; in assay [3] it was more than 1000 nM; in assay [4] it was not above 10 nM.
Take `[2H]C([2H])([2H])n1c(=O)n([C@@H]2CC[C@@H](NC(=O)OC)C2)c2cc(Nc3cc(C(C)(C)O)c4nc(C)n(-c5cnn(C(F)F)c5)c4n3)ncc21` [Example 115, Methyl ((1R,3R)-3-(6-((3-(1-(difluoromethyl)-1H-pyrazol-4-yl)-7-(2-hydroxypropan-2-yl)-2-methyl-3H-imidazo[4,5-b]pyridin-5-yl)amino)-3-(methyl-d3)-2-oxo-2,3-dihydro-1H-imidazo[4,5-c]pyridin-1-yl)cyclopentyl)carbamate]: the IC50 was not above 10 nM in assay [1], more than 1000 nM in assay [2], more than 1000 nM in assay [3] and not above 10 nM in assay [4].
On to `[2H]C([2H])([2H])n1c(=O)n([C@@H]2CC[C@@](C)(NC(=O)C3CC3)C2)c2cc(Nc3cc(C(=O)N4CCOCC4)c4cccc(C(F)(F)F)c4n3)ncc21` [Example 116, N-((1R,3R)-1-methyl-3-(3-(methyl-d3)-6-((4-(morpholine-4-carbonyl)-8-(trifluoromethyl)quinolin-2-yl)amino)-2-oxo-2,3-dihydro-1H-imidazo[4,5-c]pyridin-1-yl)cyclopentyl)cyclopropanecarboxamide], for which the IC50 in assay [1] is not above 10 nM; in assay [2] it was 100 to 500 nM; in assay [3], 100 to 500 nM; in assay [4], not above 10 nM.
As for `[2H]C([2H])([2H])n1c(=O)n([C@@H]2CC[C@](C)(NC(=O)C3CC3)C2)c2cc(Nc3cc(CO)c4nn(C)c(-c5cnn(C(F)(F)F)c5)c4n3)ncc21` [Example 117, N-((1S,3R)-3-(6-((7-(hydroxymethyl)-2-methyl-3-(1-(trifluoromethyl)-1H-pyrazol-4-yl)-2H-pyrazolo[4,3-b]pyridin-5-yl)amino)-3-(methyl-d3)-2-oxo-2,3-dihydro-1H-imidazo[4,5-c]pyridin-1-yl)-1-methylcyclopentyl)cyclopropanecarboxamide], the IC50 in assay [1] was not above 10 nM; in assay [2], more than 1000 nM; in assay [3] it was more than 1000 nM; in assay [4] it was not above 10 nM.
In the case of `[2H]C([2H])([2H])n1c(=O)n([C@@H]2CC[C@@H](NC(=O)OC)C2)c2cc(Nc3ccc4c(n3)c(-c3cnn(C(F)(F)F)c3)nn4CC(C)(C)O)ncc21` [Example 118, Methyl ((1R,3R)-3-(6-((1-(2-hydroxy-2-methylpropyl)-3-(1-(trifluoromethyl)-1H-pyrazol-4-yl)-1H-pyrazolo[4,3-b]pyridin-5-yl)amino)-3-(methyl-d3)-2-oxo-2,3-dihydro-1H-imidazo[4,5-c]pyridin-1-yl)cyclopentyl)carbamate], the IC50 was not above 10 nM in assay [1], more than 1000 nM in assay [2], more than 1000 nM in assay [3] and not above 10 nM in assay [4].
For `[2H]C([2H])([2H])n1c(=O)n([C@@H]2CC[C@](C)(NC(=O)C3CC3)C2)c2cc(Nc3ccc4c(n3)c(-c3cnn(C(F)(F)F)c3)nn4CC(C)(C)O)ncc21` [Example 119, N-((1S,3R)-3-(6-((1-(2-Hydroxy-2-methylpropyl)-3-(1-(trifluoromethyl)-1H-pyrazol-4-yl)-1H-pyrazolo[4,3-b]pyridin-5-yl)amino)-3-(methyl-d3)-2-oxo-2,3-dihydro-1H-imidazo[4,5-c]pyridin-1-yl)-1-methylcyclopentyl)cyclopropanecarboxamide], the IC50 in assay [1] was not above 10 nM; in assay [2] it was more than 1000 nM; in assay [3], more than 1000 nM; in assay [4] it was not above 10 nM.
